Source: PMC6009895, “Screening assay for inhibitors of a recombinant Streptococcus pneumoniae UDP-glucose pyrophosphorylase” (Journal of Enzyme Inhibition and Medicinal Chemistry, 2017)

Target: T1, His6GalUSpn (UDP-glucose pyrophosphorylase, UDPG:PP, GalU) (Streptococcus pneumoniae, UniProt O86882)
T1 construct: complete galU gene amplified from plasmid pMMG2 into pET28a (NheI/BamHI; pETgalU), His6 tag before the protein, tag cut not mentioned; E. coli BL21(DE3), IMAC
Assay: malachite green Pi assay coupled to inorganic pyrophosphatase
Format: biochemical
Settings: 30 min preincubation at 37 °C with 7.5 mM compound; 7.5 mM UTP, 7.5 mM Glc-1P, 5 mM MgCl2, MOPS pH 8.0, 37 °C

T1 sequence (O86882 entry or part of it): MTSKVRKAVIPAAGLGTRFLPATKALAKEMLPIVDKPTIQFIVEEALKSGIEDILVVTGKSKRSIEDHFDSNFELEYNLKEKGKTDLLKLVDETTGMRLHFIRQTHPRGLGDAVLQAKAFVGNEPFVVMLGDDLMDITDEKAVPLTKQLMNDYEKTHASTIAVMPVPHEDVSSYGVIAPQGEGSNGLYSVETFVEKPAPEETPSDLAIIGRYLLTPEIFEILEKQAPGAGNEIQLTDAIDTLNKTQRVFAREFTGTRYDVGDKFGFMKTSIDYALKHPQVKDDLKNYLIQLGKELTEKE

Row | SMILES | % inhibition at 7.5 mM
1 | Nc1nc(NC2CC2)c2ncn([C@H]3C=C[C@@H](CO)C3)c2n1 [abacavir] | inhibit S. pneumoniae UDP-glucose pyrophosphorylase, including compounds containing a purine base in their structure
2 | Cc1cn([C@H]2C=C[C@@H](CO)O2)c(=O)[nH]c1=O [stavudine] | nucleoside analogs: abacavir, decitabine stavudine and zidovudine
3 | Cc1cn([C@H]2C[C@H](N=[N+]=[N-])[C@@H](CO)O2)c(=O)[nH]c1=O [zidovudine] | nucleoside analogs: abacavir, decitabine stavudine and zidovudine
